# Experiments:
# [1] = tested on: mRNA of a fragment of the env gene of EIAV; assay: In vitro translation (wheat-germ extract, 35S-methionine); type: biochemical
# Protocol: The in vitro translation studies were performed as follows. A fragment of DNA from the env gene of EIAV was transcribed with an SP-6 polymerase kit, and the resulting mRNA (approximately 600 bases long) was capped and isolated. The transcribed fragment included the target sequence 5′-[…]-3′ (SEQ ID NO. 3) (the CC-1065 binding site is underlined). The corresponding antisense sequence (using normal phosphodiester chemistry) was 5′-[…]-3′ (SEQ ID NO. 4). Translation was performed with a wheat-germ extract (Promega) in the presence of ^35S-methionine. The mRNA's were divided into approximately 2 μg aliquots, and treated according to the protocols listed for Table 3 below. Treated mRNA was separated from small molecules (such as DMSO and CC-1065) with a Sephadex 50-based NICK column. Translation was carried out in 25 μl of buffer containing the wheat germ translation system; the isolated mRNA; amino acids, including the labelled methionine; and RNAsin, an inhibitor of RNase. The proteins produced were divided into two aliquots. One aliquot was fractionated by SDS-PAGE, followed by autoradiography; and the other was analyzed by scintillation spectrometry. The concentrations of antisense oligomers and CC-1065 in the free-solution chemistries were relatively high compared to the sense target, to optimize duplex formation and drug binding. […] The following pairs were different at the P<0.05 level by Student's t-test (unpaired analysis): 1,5; 2,5; 3,4; 3,5; 4,5.
# [2] = tested on: DNA sense (SEQ ID NO. 1) / DNA-MP antisense duplex (PO-MP); assay: Binding of drug to duplex (NACS column, A365/A260); set-up: species or system equine infectious anemia retrovirus
# Protocol: (§1) Oligodeoxyribonucleotides were obtained by chemical synthesis through standard techniques on an automated synthesizer located in the Department of Veterinary Microbiology and Parasitology at Louisiana State University. Antisense MP and PS oligonucleotides were obtained from commercial sources, as was synthetic sense RNA. Poly(rA) was obtained from Sigma Chemical Co. CC-1065 was obtained from the Upjohn Company. Oligonucleotides (0.075 μmol-P each) were mixed in 0.36 ml 0.01 M Na cacodylate buffer, pH 7.2, with CC-1065 in dimethyl formamide (0.04 ml), or with dimethylformamide only. (Note that “μmol-P” denotes μmoles of phosphate; i.e., μmoles of nucleotide bases, rather than of oligonucleotides per se.) Incubations of complementary strands, with or without drug, were carried out at 37° C. for 4 hr. In the initial experiments, unbound drug was separated from nucleotide duplexes by ethanol precipitation. Equivalent results were obtained by trapping the oligonucleotides and CC-1065 on NACS-52 columns, and washing first with low-salt buffer and then with buffer containing 1M NaCl. Unbound CC-1065 was completely retained on the column. […] Samples prepared in this manner could be directly used for determination of binding of the drug to the nucleic acid (as measured by the A365/A260 ratio), with the extinction of CC-1065 absorbance at 365 nm taken as 48,000, and the extinction of the nucleic acid absorption at 260 nm based on its composition. Similar approaches were used with the drug U-71,184, with an assumed extinction of 32,000 at 365 nm.
# (§2) When methyl phosphonate and synthetic RNA were used, the purities of the crude oligonucleotides were taken to be about 30%, based on the data sheet prepared by the supplier. (The remainder comprised primarily truncated sequences.) Appropriate excess amounts of these agents were included in the reactions to ensure helix formation. The corresponding sense or antisense oligonucleotides were maintained at 0.075 μmol-P in the reaction. […] Unpurified materials were used in these preliminary studies because of the relatively high cost of purified oligoribonucleotides. The majority of the contributions to A260 for these samples should be due to material that was not duplexed.
# (§3) Table 1 summarizes binding data obtained from incubations of CC-1065 with nucleotides at greater than stoichiometric levels; the levels used in these experiments were 1 drug molecule/10 nucleotide residues, which is equivalent to 4 drug molecules/20-mer duplex. […] There seemed to be no difference in drug binding between antisense oligonucleotides with a PO and those with a PS backbone. Again, the 5′-AGTTA-3′ sequence on the sense strand was presumably the primary target, and the 3′-AAGTA-5′ on the antisense probe was presumably the secondary target.
# [3] = tested on: DNA sense (SEQ ID NO. 1) / DNA-PO antisense (SEQ ID NO. 2) duplex (PO-PO); assay: Binding of drug to duplex (NACS column, A365/A260); set-up: species or system equine infectious anemia retrovirus; details: PO-PO; Initial D/N = 0.10
# Protocol: as §1, §2, §3
# [4] = tested on: DNA sense (SEQ ID NO. 1) / DNA-PS antisense duplex (PO-PS); assay: Binding of drug to duplex (NACS column, A365/A260); set-up: species or system equine infectious anemia retrovirus; details: PO-PS; Initial D/N = 0.10
# Protocol: as §1, §2, §3
# Oligo(dA)-Oligo(dT) = assay: Binding of drug to duplex (NACS column, A365/A260); details: Oligo(dA)-Oligo(dT); Initial D/N = 0.10
# Protocol: as §1, §2, §3
# Poly(rA)-Oligo(dT) = assay: Binding of drug to duplex (NACS column, A365/A260); details: Poly(rA)-Oligo(dT); Initial D/N = 0.10
# Protocol: as §1, §2, §3
# [5] = tested on: DNA sense (SEQ ID NO. 1) / DNA-PO antisense duplex (PO-PO); assay: Duplex strand separation temperature (Tm); type: binding, equine infectious anemia retrovirus; details: for Tm Elevation: highest level of binding obtained
# Protocol: (§4) Samples for determining Tm were also obtained by the above procedures. […] Thus the effects of this agent on Tm were carried out with Distamycin in solution with the duplexes tested.
# (§5) Tm's were determined on a Gilford 2400 Spectrophotometer set at 260 nm, with a 4-chamber Peltier-based temperature controller. Temperature was ramped linearly at 0.5° C./min. Absorbance data were acquired with a 12-bit A/D converter, and data were processed with Lotus 123W and SigmaPlot software. Tm values were determined from the plots as the midpoint of the thermal transitions.
# [6] = tested on: DNA sense (SEQ ID NO. 1) / DNA-PS antisense duplex; assay: Duplex strand separation temperature (Tm); type: binding, equine infectious anemia retrovirus; details: for Tm Elevation: highest level of binding obtained
# Protocol: as §4, §5
# [7] = tested on: DNA sense (SEQ ID NO. 1) / DNA-MP antisense duplex (PO-MP); assay: Duplex strand separation temperature (Tm); type: binding, equine infectious anemia retrovirus
# Protocol: as §4, §5
# Poly rA - Oligo dT (PO) = assay: Duplex strand separation temperature (Tm); type: binding; details: for Tm Elevation: highest level of binding obtained
# Protocol: as §4, §5
# Oligo dA - Oligo dT = assay: Duplex strand separation temperature (Tm); type: binding; details: for Tm Elevation: highest level of binding obtained
# Protocol: as §4, §5
molecule,measurement,setting,value
5′-TGTTGGGTAATAGGGGTTGA-3′ (SEQ ID NO. 4) (chemistry not given here) [antisense],DPM S-35 ± standard error,"[1]; 1.95 μg mRNA, antisense about 3 times mRNA sense, CC-1065 3 times antisense, scintillation spectrometry",35.225 ± 3.667 DPM
same,Production of the two protein products (autoradiography),"[1]; SDS-PAGE, autoradiography, data not shown",suppressed production
same,Effect on translation,[1]; in vitro translation of env mRNA fragment,partially inhibit translation
"Cc1c[nH]c2c1C13CC1CN(C(=O)c1cc4cc(NC(=O)c5cc6ccccc6[nH]5)ccc4[nH]1)C3=CC2=O (stereo not drawn) [U-71.184, U-71,184]",Binding for MP antisense sequences,[2]; MP antisense sequences,about 1 drug molecule/duplex
same,Bound D/N,"[2]; PO-MP, Initial D/N = 0.10",0.029 ± 0.001
same,Bound D/N,[3],0.026 ± 0.004
same,Bound D/N,[4],0.026 ± 0.001
same,Bound D/N,Oligo(dA)-Oligo(dT),0.049 ± 0.001
same,Bound D/N,Poly(rA)-Oligo(dT),0.023 ± 0.001
same,Duplex Strand Separation Temperature,"[5]; DNA / DNA-PO, drug-bound duplex (Table 6)",75.5 ± 0.7
same,Tm Elevation,[5]; PO-PO,7.5 °C
same,Duplex Strand Separation Temperature,"[6]; DNA / DNA-PS, drug-bound duplex (Table 6)",73.0 ± 1.4
same,Tm Elevation,[6]; PS-PS,8.6 °C
same,Duplex Strand Separation Temperature,"[7]; DNA / DNA-MP, drug-bound duplex (Table 6)",73.0 ± 1.7
same,Tm Elevation,"[7]; PO-MP, highest level of binding obtained",19.5 °C
same,Duplex Strand Separation Temperature,"Poly rA - Oligo dT (PO); Poly rA / Oligo dT (PO), drug-bound duplex (Table 6)",54.3 ± 0.6
same,Stabilization of duplexes,Poly rA - Oligo dT (PO); poly(rA)-oligo(dT),"failure of U-71,184 to stabilize"
same,Tm Elevation,Poly rA - Oligo dT (PO); rA-dT,1.3 °C
same,Duplex Strand Separation Temperature,"Oligo dA - Oligo dT; Oligo dA / Oligo dT, drug-bound duplex (Table 6)",86.7 ± 0.6
same,Tm Elevation,Oligo dA - Oligo dT; dA-dT,29.7 °C
"Cn1cc(NC(=O)c2cc(NC(=O)c3cc(NC=O)cn3C)cn2C)cc1C(=O)NCCC(=N)N [Distamycin, Distamycin A]",Increase in Tm,"[5]; PO-PO, Distamycin in solution at D/N = 0.1",0.7
same,"Tm with Distamycin, Ave ± S.D.","[5]; PO-PO, Distamycin in solution at D/N = 0.1, in °C (unit assumed)",68.7 ± 0.6
same,Tm Elevation,[5]; PO-PO,0.7 °C
same,Increase in Tm,"[6]; PS-PS, Distamycin in solution at D/N = 0.1",1.5
same,"Tm with Distamycin, Ave ± S.D.","[6]; PS-PS, Distamycin in solution at D/N = 0.1, in °C (unit assumed)",65.7 ± 1.5
same,Tm Elevation,[6]; PS-PS,1.5 °C
same,Increase in Tm,"Poly rA - Oligo dT (PO); rA-dT, Distamycin in solution at D/N = 0.1",4.0
same,"Tm with Distamycin, Ave ± S.D.","Poly rA - Oligo dT (PO); rA-dT, Distamycin in solution at D/N = 0.1, in °C (unit assumed)",57.0 ± 0
same,Tm Elevation,Poly rA - Oligo dT (PO); rA-dT,4.0 °C
same,Increase in Tm,"Oligo dA - Oligo dT; dA-dT, Distamycin in solution at D/N = 0.1",21.3
same,"Tm with Distamycin, Ave ± S.D.","Oligo dA - Oligo dT; dA-dT, Distamycin in solution at D/N = 0.1, in °C (unit assumed)",78.3 ± 0.6
same,Tm Elevation,Oligo dA - Oligo dT; dA-dT,21.3 °C
same,Elevation of Tm,Oligo dA - Oligo dT; oligo(dA)-oligo(dT),significant elevation of Tm

# — patent USRE38169E1, “Hyperstabilizing antisense nucleic acid binding agents” (priority 1993, dated 2003)
